{
  "source": "paper PMC4961696",
  "about": "“An Enantiomer of an Oral Small-Molecule TSH Receptor Agonist Exhibits Improved Pharmacologic Properties” (Frontiers in Endocrinology, 2016)",
  "key": {"TSH receptor (TSHR) [1]": {"target": "T1, TSH receptor (TSHR) (Homo sapiens, UniProt P16473)", "T1 sequence (P16473 21-764)": "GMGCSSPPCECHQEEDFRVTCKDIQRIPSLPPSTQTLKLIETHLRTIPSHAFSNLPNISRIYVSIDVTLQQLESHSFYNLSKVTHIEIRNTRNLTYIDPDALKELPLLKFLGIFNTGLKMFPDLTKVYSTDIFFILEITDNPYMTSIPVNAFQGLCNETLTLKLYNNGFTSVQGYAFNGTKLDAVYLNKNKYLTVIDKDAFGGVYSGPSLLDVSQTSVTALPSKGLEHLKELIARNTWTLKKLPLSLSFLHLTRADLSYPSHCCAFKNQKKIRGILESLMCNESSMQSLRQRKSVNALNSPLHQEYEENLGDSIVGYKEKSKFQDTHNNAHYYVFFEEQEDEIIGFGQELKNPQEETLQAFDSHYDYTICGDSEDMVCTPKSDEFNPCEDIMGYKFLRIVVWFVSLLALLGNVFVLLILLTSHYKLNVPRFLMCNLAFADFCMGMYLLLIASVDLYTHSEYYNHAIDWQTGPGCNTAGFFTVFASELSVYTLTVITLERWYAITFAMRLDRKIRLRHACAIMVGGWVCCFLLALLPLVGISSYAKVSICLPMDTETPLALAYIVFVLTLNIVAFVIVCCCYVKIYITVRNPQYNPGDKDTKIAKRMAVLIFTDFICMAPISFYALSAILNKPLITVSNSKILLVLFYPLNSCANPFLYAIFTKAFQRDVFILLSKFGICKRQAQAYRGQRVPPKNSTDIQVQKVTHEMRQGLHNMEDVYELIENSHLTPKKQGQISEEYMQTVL", "assay": "cAMP production in HEK293 cells stably expressing TSHR (agonist dose-response)", "type": "cell-based"}, "TSH receptor (TSHR) [2]": {"target": "T1, TSH receptor (TSHR)", "assay": "cAMP production in HEK293 cells stably expressing TSHR (agonist dose-response); inactive in HEK-LHR and HEK-FSHR cells", "type": "cell-based"}},
  "note": "pEC50: −log10 of the molar value.",
  "data": [
    {"molecule": "COc1ccc(C2Nc3cccc(O)c3C(=O)N2Cc2ccccc2)cc1COc1ccc(NC(C)=O)cc1", "note": "(racemic) [C2]", "values": [
      {"measurement": "pEC50", "setting": "TSH receptor (TSHR) [1]", "result": 7.34}
    ]},
    {"molecule": "COc1ccc([C@@H]2Nc3cccc(O)c3C(=O)N2Cc2ccccc2)cc1COc1ccc(NC(C)=O)cc1", "note": "[E1]", "values": [
      {"measurement": "pEC50", "setting": "TSH receptor (TSHR) [2]", "result": 6.66}
    ]},
    {"molecule": "COc1ccc([C@H]2Nc3cccc(O)c3C(=O)N2Cc2ccccc2)cc1COc1ccc(NC(C)=O)cc1", "note": "[E2]", "values": [
      {"measurement": "pEC50", "setting": "TSH receptor (TSHR) [2]", "result": 7.74}
    ]}
  ]
}
